The results in this text go back to PubChem BioAssay (NCI).

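Cells were grown in 96-well plates and exposed to each compound for 48 hours at five concentrations; endpoints were interpolated linearly between bracketing concentrations, or set to the highest concentration if not reached. Here, GI50 denotes the concentration required for 50% inhibition of growth. TGI is the concentration that stops growth completely.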

Some test systems named below: A549 NSCLC; OVCAR-8 ovarian; BT-549 breast; K-562 leukemia; ACHN renal; PC-3 prostate; SN12C renal; SK-MEL-28 melanoma; HOP-62 NSCLC; 786-0 renal.
What all share (experiment): inhibition of tumour cell growth, NCI panel, 48 h

For the compound `O=C(O)c1cc(Cc2ccc(O)c(C(=O)O)c2)ccc1O` (tested in a mixture with another compound), the GI50 is 9.82 µM with A549 NSCLC; 2.41 µM in the assay with OVCAR-8 ovarian; 3.13 µM with BT-549 breast; 2.38 µM in the assay on K-562 leukemia; 11 µM with ACHN renal; 3.58 µM in the assay with PC-3 prostate. In addition, the GI50 with SN12C renal is 6.84 µM; in the assay on SK-MEL-28 melanoma, 10.1 µM; in the assay on HOP-62 NSCLC, 10.9 µM; in the assay with 786-0 renal, 9.64 µM. In addition, the TGI in the assay on A549 NSCLC was 28 µM; with OVCAR-8 ovarian it was 6.26 µM; with BT-549 breast, 16.6 µM; in the assay on K-562 leukemia, > 100 µM; in the assay with ACHN renal it was 24.8 µM; in the assay on PC-3 prostate it was 19.2 µM. Also, the TGI in the assay with SN12C renal was found to be 20.6 µM; in the assay with SK-MEL-28 melanoma, 26.8 µM; in the assay with HOP-62 NSCLC, 26.6 µM; in the assay with 786-0 renal it was 25.2 µM.
Take `NCCP(=O)(O)O`: the TGI with A549 NSCLC, with OVCAR-8 ovarian, in the assay with BT-549 breast, with K-562 leukemia, with ACHN renal and with PC-3 prostate was > 100 µM each time. The TGI with SN12C renal, with SK-MEL-28 melanoma, with HOP-62 NSCLC and in the assay on 786-0 renal was > 100 µM in each case.
For the compound `O=S(=O)(NCCNc1cc(-c2cn(-c3ccccc3)nc2-c2cccc(O)c2)ccn1)c1ccc(Cl)cc1`, the GI50 was 3.89 µM with A549 NSCLC; 3.72 µM in the assay on OVCAR-8 ovarian; 2.06 µM in the assay on BT-549 breast; 1.98 µM with K-562 leukemia; 2.63 µM in the assay with ACHN renal; 2.45 µM in the assay on PC-3 prostate. In addition, the GI50 with SN12C renal was 3.47 µM; with SK-MEL-28 melanoma it was 2.2 µM; in the assay on HOP-62 NSCLC it was 2.87 µM; with 786-0 renal it was 2.54 µM. The TGI in the assay on A549 NSCLC was determined as 18.8 µM; with OVCAR-8 ovarian, 22.6 µM; with BT-549 breast, 7.65 µM; with K-562 leukemia, 5.4 µM; with ACHN renal, 10.3 µM; with PC-3 prostate it was 12 µM. The TGI with SN12C renal stood at 14 µM; in the assay on SK-MEL-28 melanoma, 5.42 µM; in the assay with HOP-62 NSCLC, 13.7 µM; in the assay with 786-0 renal it was 9.78 µM.
For the compound `O=C(Nc1ccccc1O)c1ccc(CNC(=O)c2sccc2Nc2ccnc(C(F)(F)F)c2)cc1`, the GI50 was 8.68 µM in the assay with A549 NSCLC; 3.44 µM in the assay with OVCAR-8 ovarian; 5.54 µM in the assay with BT-549 breast; 5.72 µM with K-562 leukemia; 4.95 µM in the assay with ACHN renal; 4.56 µM with PC-3 prostate. For the same compound, the GI50 with SN12C renal is 13.7 µM; in the assay with SK-MEL-28 melanoma, 5.57 µM; with HOP-62 NSCLC, 10.9 µM; in the assay on 786-0 renal it was 9.92 µM. In addition, the TGI in the assay on A549 NSCLC is 28.2 µM; in the assay on OVCAR-8 ovarian, 41.2 µM; with BT-549 breast it was 35 µM; in the assay on K-562 leukemia, 62.5 µM; with ACHN renal it was 26.5 µM; with PC-3 prostate it was 36.8 µM. In addition, the TGI was determined as 55.1 µM with SN12C renal, 46.3 µM in the assay on SK-MEL-28 melanoma, 42.7 µM in the assay with HOP-62 NSCLC and 25 µM with 786-0 renal.
Take `COc1ccc(-c2nnc(N3CCN(C(=O)CN4CCN(c5ccc(Cl)cc5)CC4)CC3)nc2-c2ccc(OC)cc2)cc1`: the GI50 is 27.4 µM in the assay with A549 NSCLC; 35.8 µM in the assay with OVCAR-8 ovarian; 8.88 µM with BT-549 breast; 15.2 µM in the assay with K-562 leukemia; 22.9 µM in the assay on ACHN renal; 9.58 µM in the assay on PC-3 prostate. The GI50 was 17.8 µM in the assay on SN12C renal, > 100 µM in the assay with SK-MEL-28 melanoma, 26.2 µM in the assay on HOP-62 NSCLC and 17.5 µM with 786-0 renal. The TGI in the assay on A549 NSCLC is > 100 µM; in the assay on OVCAR-8 ovarian it was > 100 µM; in the assay on BT-549 breast it was 82.8 µM; with K-562 leukemia, > 100 µM; in the assay on ACHN renal, > 100 µM; with PC-3 prostate it was > 100 µM. Besides, the TGI in the assay on SN12C renal is > 100 µM; in the assay with SK-MEL-28 melanoma it was > 100 µM; in the assay with HOP-62 NSCLC it was 81.1 µM; in the assay with 786-0 renal, 69.8 µM.
With `C[C@]12C3CC[C@@]4(CO)C[C@]3(CCC1[C@](C)(C(=O)O)CC[C@@H]2O)CC4=O` (stereo not given in full), the GI50 in the assay with A549 NSCLC, in the assay on OVCAR-8 ovarian, with BT-549 breast, in the assay on K-562 leukemia, with ACHN renal and in the assay on PC-3 prostate was > 100 µM in each case. Also, the GI50 in the assay on SN12C renal, in the assay with SK-MEL-28 melanoma, in the assay with HOP-62 NSCLC and with 786-0 renal was > 100 µM in each case. The TGI in the assay with A549 NSCLC, in the assay with OVCAR-8 ovarian, in the assay with BT-549 breast, in the assay on K-562 leukemia, in the assay on ACHN renal and in the assay on PC-3 prostate was > 100 µM throughout. The TGI with SN12C renal, in the assay with SK-MEL-28 melanoma, in the assay on HOP-62 NSCLC and in the assay on 786-0 renal was > 100 µM in each case.
`C1=C(c2ccccc2)SC=C(c2ccccc2)S1`: the TGI with A549 NSCLC was > 100 µM; with OVCAR-8 ovarian, > 100 µM; in the assay on BT-549 breast, 84.8 µM; in the assay with K-562 leukemia, 89.3 µM; with ACHN renal, > 100 µM; in the assay with PC-3 prostate, > 100 µM. Moreover, the TGI in the assay with SN12C renal, in the assay with SK-MEL-28 melanoma, with HOP-62 NSCLC and in the assay on 786-0 renal was > 100 µM throughout.
Consider `COc1ccc(/C=C(/C)[N+](=O)[O-])cc1`, for which the TGI worked out at 18.2 µM in the assay on A549 NSCLC; 5.75 µM in the assay on OVCAR-8 ovarian; 6.91 µM in the assay with BT-549 breast; 16 µM with K-562 leukemia; 3.97 µM in the assay on ACHN renal; 5.04 µM in the assay on PC-3 prostate. The TGI with SN12C renal is 4.62 µM; in the assay with SK-MEL-28 melanoma, 8.14 µM; in the assay on HOP-62 NSCLC, 3.61 µM; with 786-0 renal it was 2.51 µM.
Regarding `COc1cc(-c2cc(/C=C3\C(=O)Nc4ccccc43)[nH]n2)cc(OC)c1OC`, the GI50 in the assay with A549 NSCLC is 3.36 µM; with OVCAR-8 ovarian, 2.5 µM; in the assay with BT-549 breast, 2.1 µM; with K-562 leukemia, 2.65 µM; in the assay on ACHN renal, 2.5 µM; in the assay on PC-3 prostate, 2.14 µM. For the same compound, the GI50 with SN12C renal is 3.58 µM; in the assay with SK-MEL-28 melanoma, 2.95 µM; in the assay with HOP-62 NSCLC, 3.2 µM; with 786-0 renal it was 5.1 µM. The TGI with A549 NSCLC was 13 µM; with OVCAR-8 ovarian, 7.48 µM; in the assay on BT-549 breast, 6.58 µM; in the assay on K-562 leukemia, 11.5 µM; in the assay with ACHN renal, 12 µM; in the assay with PC-3 prostate, 10 µM. The TGI in the assay with SN12C renal is 14.5 µM; in the assay with SK-MEL-28 melanoma, 11.3 µM; with HOP-62 NSCLC it was 14.9 µM; with 786-0 renal, 20.2 µM.
Regarding `O=C(Nc1cccc(O)c1)c1cccc(NC2=C(Cl)C(=O)N(Cc3ccccc3)C2=O)c1`, the GI50 in the assay with A549 NSCLC is 18.8 µM; in the assay with OVCAR-8 ovarian, 13.1 µM; in the assay on BT-549 breast it was 0.396 µM; with K-562 leukemia, 1.51 µM; with ACHN renal, 17.9 µM; in the assay with PC-3 prostate, 8.29 µM. In addition, the GI50 is 8.26 µM in the assay on SN12C renal, 16.9 µM in the assay on SK-MEL-28 melanoma, 19.2 µM with HOP-62 NSCLC and 15.2 µM with 786-0 renal. For the same compound, the TGI in the assay with A549 NSCLC was 48.3 µM; with OVCAR-8 ovarian it was 43.5 µM; with BT-549 breast, 2.05 µM; with K-562 leukemia it was 28.4 µM; in the assay on ACHN renal, 33.1 µM; in the assay on PC-3 prostate, 25 µM. Further, the TGI with SN12C renal worked out at 22.1 µM; with SK-MEL-28 melanoma it was 36.3 µM; with HOP-62 NSCLC, 33.6 µM; in the assay on 786-0 renal, 30.2 µM.
